Experiments:
[1] = system: Myotonic Dystrophy 1 affected patient fibroblasts (Coriel GM04602; 1600 CTG repeats); test: DM1 foci reduction assay (EC50 assay; CAG10-Cy3 FISH, foci per nucleus); type: cell-based; settings: Homo sapiens, Fibroblast; DM1 patient fibroblasts, 48 h treatment, foci per nucleus; read-out: DM1 EC50, 48 h
In short: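 Foci per nucleus counted by 20× imaging of 4 areas per well, after overnight FISH with 5 nM CAG10-Cy3 and DAPI staining of fixed, permeabilized cells. DM1 fibroblasts (GM04602, 1600 CTG) were dosed 48 h at 37 °C, 8 points, 3-fold dilutions, 3 μM top concentration.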

[2] = system: F35T cells; test: Foci reduction in FECD (CAG10-Cy3 FISH, foci per nucleus); type: cell-based; settings: F35T cells, 48 h treatment, foci per nucleus; read-out: FECD EC50, 48 h
In short: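 Foci per nucleus were counted by imaging after overnight CAG10-Cy3 FISH at 37 °C (30% formamide, 2×SSC) with DAPI counterstain, on PFA-fixed, ethanol-permeabilized F35T cells. The cells, seeded at 5000 per well in supplemented Opti-MEM, had received 8-point compound dilutions for 48 h at 37 °C.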

| SMILES | EC50 [1] | EC50 [2] |
| --- | --- | --- |
| COCCOCCOCCOCCN(CCCCCn1cc(NC(=O)c2nc(NC(=O)CCNC(=O)c3cc(NC(=O)c4nccn4C)cn3C)cn2C)cc1C(=O)NCCCC(=O)Nc1cn(C)c(C(=O)NCCC(=O)Nc2cc(C(=O)Nc3cn(C)c(C(=O)NCCC(=O)N4CCC(C#CC#CC5CCN(C(C)=O)CC5)CC4)n3)n(C)c2)n1)CCOCCOCCOCCOC [Compound B-257] | 100 to 500 nM | 100 to 500 nM |
| COCCOCCOCCOCCN(CCCCCn1cc(NC(=O)c2nc(NC(=O)CCNC(=O)c3cc(NC(=O)c4nccn4C)cn3C)cn2C)cc1C(=O)NCCCC(=O)Nc1cn(C)c(C(=O)NCCC(=O)Nc2cc(C(=O)Nc3cn(C)c(C(=O)NCCC(=O)N4CCC(C#CC#CC5CCNCC5)CC4)n3)n(C)c2)n1)CCOCCOCCOCCOC [Compound B-258] | 500 to 1000 nM | 500 to 1000 nM |
| COCCOCCOCCOCCN(CCOCCOCCOCCOC)C(=O)CCCCn1cc(NC(=O)c2nc(NC(=O)CCNC(=O)c3cc(NC(=O)c4nccn4C)cn3C)cn2C)cc1C(=O)NCCCC(=O)Nc1cn(C)c(C(=O)NCCC(=O)Nc2cc(C(=O)Nc3cn(C)c(C(=O)NCCC(=O)N4CCC(C#CC#CC5CCNCC5)CC4)n3)n(C)c2)n1 [Compound B-260] | 100 to 500 nM | 100 to 500 nM |
| CN(CCCC#Cc1cccc(C(=O)O)c1)CCCNC(=O)c1nc(NC(=O)c2cc(NC(=O)CCNC(=O)c3nc(NC(=O)CCCNC(=O)c4cc(NC(=O)c5nc(NC(=O)CCNC(=O)c6cc(NC(=O)c7nccn7C)cn6C)cn5C)cn4C)cn3C)cn2C)cn1C [Compound B-263] | 100 to 500 nM | < 100 nM |
| CCCNC(=O)CCNC(=O)c1nc(NC(=O)c2cc(NC(=O)CCNC(=O)c3nc(NC(=O)CCCNC(=O)c4cc(NC(=O)c5nc(NC(=O)CCNC(=O)c6cc(NC(=O)c7nccn7C)cn6C)cn5C)cn4CCN=[N+]=[N-])cn3C)cn2C)cn1C [Compound B-264] | < 100 nM | < 100 nM |
| CCCNC(=O)CCNC(=O)c1nc(NC(=O)c2cc(NC(=O)CCNC(=O)c3nc(NC(=O)CCCNC(=O)c4cc(NC(=O)c5nc(NC(=O)CCNC(=O)c6cc(NC(=O)c7nccn7C)cn6C)cn5C)cn4CCN)cn3C)cn2C)cn1C [Compound B-265] | 100 to 500 nM | 100 to 500 nM |
| CC(=O)N1CCC(C#CC#CC2CCN(C(=O)CCNC(=O)c3nc(NC(=O)c4cc(NC(=O)CCNC(=O)c5nc(NC(=O)CCCNC(=O)c6cc(NC(=O)c7nc(NC(=O)CCNC(=O)c8cc(NC(=O)c9nccn9C)cn8C)cn7C)cn6CCN)cn5C)cn4C)cn3C)CC2)CC1 [Compound B-266] | < 100 nM | < 100 nM |
| Cn1cc(NC(=O)c2nccn2C)cc1C(=O)NCCC(=O)Nc1cn(C)c(C(=O)Nc2cc(C(=O)NCCCC(=O)Nc3cn(C)c(C(=O)NCCC(=O)Nc4cc(C(=O)Nc5cn(C)c(C(=O)NCCC(=O)N6CCC(C#CC#CC7CCNCC7)CC6)n5)n(C)c4)n3)n(CCN)c2)n1 [Compound B-267] | < 100 nM | < 100 nM |
| CCCNC(=O)CCNC(=O)c1nc(NC(=O)c2cc(NC(=O)CCNC(=O)c3nc(NC(=O)CCCNC(=O)c4cc(NC(=O)c5nc(NC(=O)CCNC(=O)c6cc(NC(=O)c7nccn7C)cn6C)cn5C)cn4CCNC(C)=O)cn3C)cn2C)cn1C [Compound B-268] | 100 to 500 nM | < 100 nM |
| CC(=O)NCCn1cc(NC(=O)c2nc(NC(=O)CCNC(=O)c3cc(NC(=O)c4nccn4C)cn3C)cn2C)cc1C(=O)NCCCC(=O)Nc1cn(C)c(C(=O)NCCC(=O)Nc2cc(C(=O)Nc3cn(C)c(C(=O)NCCC(=O)N4CCC(C#CC#CC5CCN(C(C)=O)CC5)CC4)n3)n(C)c2)n1 [Compound B-269] | 100 to 500 nM | < 100 nM |
| CC(=O)NCCn1cc(NC(=O)c2nc(NC(=O)CCNC(=O)c3cc(NC(=O)c4nccn4C)cn3C)cn2C)cc1C(=O)NCCCC(=O)Nc1cn(C)c(C(=O)NCCC(=O)Nc2cc(C(=O)Nc3cn(C)c(C(=O)NCCC(=O)N4CCC(C#CC#CC5CCNCC5)CC4)n3)n(C)c2)n1 [Compound B-270] | > 1000 nM | 500 to 1000 nM |
| CCCNC(=O)CCNC(=O)c1nc(NC(=O)c2cc(NC(=O)CCNC(=O)c3nc(NC(=O)CCCNC(=O)c4cc(NC(=O)c5nc(NC(=O)CCNC(=O)c6cc(NC(=O)c7nccn7C)cn6C)cn5C)cn4CCCN=[N+]=[N-])cn3C)cn2C)cn1C [Compound B-271] | < 100 nM | < 100 nM |
| CCCNC(=O)CCNC(=O)c1nc(NC(=O)c2cc(NC(=O)CCNC(=O)c3nc(NC(=O)CCCNC(=O)c4cc(NC(=O)c5nc(NC(=O)CCNC(=O)c6cc(NC(=O)c7nccn7C)cn6C)cn5C)cn4CCCN)cn3C)cn2C)cn1C [Compound B-272] | 100 to 500 nM | < 100 nM |
| CCCNC(=O)CCNC(=O)c1nc(NC(=O)c2cc(NC(=O)CCNC(=O)c3nc(NC(=O)CCCNC(=O)c4cc(NC(=O)c5nc(NC(=O)CCNC(=O)c6cc(NC(=O)c7nccn7C)cn6C)cn5C)cn4CCCCN=[N+]=[N-])cn3C)cn2C)cn1C [Compound B-278] | < 100 nM | < 100 nM |
| CCCNC(=O)CCNC(=O)c1nc(NC(=O)c2cc(NC(=O)CCNC(=O)c3nc(NC(=O)CCCNC(=O)c4cc(NC(=O)c5nc(NC(=O)CCNC(=O)c6cc(NC(=O)c7nccn7C)cn6C)cn5C)cn4CCCCN)cn3C)cn2C)cn1C [Compound B-279] | < 100 nM | < 100 nM |
| CC(=O)N1CCC(C#CC#CC2CCN(C(=O)CCNC(=O)c3nc(NC(=O)c4cc(NC(=O)CCNC(=O)c5nc(NC(=O)CCCNC(=O)c6cc(NC(=O)c7nc(NC(=O)CCNC(=O)c8cc(NC(=O)c9nccn9C)cn8C)cn7C)cn6CCCCN)cn5C)cn4C)cn3C)CC2)CC1 [Compound B-280] | < 100 nM | < 100 nM |
| Cn1cc(NC(=O)c2nccn2C)cc1C(=O)NCCC(=O)Nc1cn(C)c(C(=O)Nc2cc(C(=O)NCCCC(=O)Nc3cn(C)c(C(=O)NCCC(=O)Nc4cc(C(=O)Nc5cn(C)c(C(=O)NCCC(=O)N6CCC(C#CC#CC7CCNCC7)CC6)n5)n(C)c4)n3)n(CCCCN)c2)n1 [Compound B-281] | < 100 nM | < 100 nM |
| CCCNC(=O)CCNC(=O)c1nc(NC(=O)c2cc(NC(=O)CCNC(=O)c3nc(NC(=O)CCCNC(=O)c4cc(NC(=O)c5nc(NC(=O)CCNC(=O)c6cc(NC(=O)c7nccn7C)cn6C)cn5C)cn4CCCCNC(C)=O)cn3C)cn2C)cn1C [Compound B-282] | 100 to 500 nM | < 100 nM |
| CC(=O)NCCCCn1cc(NC(=O)c2nc(NC(=O)CCNC(=O)c3cc(NC(=O)c4nccn4C)cn3C)cn2C)cc1C(=O)NCCCC(=O)Nc1cn(C)c(C(=O)NCCC(=O)Nc2cc(C(=O)Nc3cn(C)c(C(=O)NCCC(=O)N4CCC(C#CC#CC5CCN(C(C)=O)CC5)CC4)n3)n(C)c2)n1 [Compound B-283] | 500 to 1000 nM | < 100 nM |
| CC(=O)NCCCCn1cc(NC(=O)c2nc(NC(=O)CCNC(=O)c3cc(NC(=O)c4nccn4C)cn3C)cn2C)cc1C(=O)NCCCC(=O)Nc1cn(C)c(C(=O)NCCC(=O)Nc2cc(C(=O)Nc3cn(C)c(C(=O)NCCC(=O)N4CCC(C#CC#CC5CCNCC5)CC4)n3)n(C)c2)n1 [Compound B-284] | < 100 nM | < 100 nM |
| CCCNC(=O)CCNC(=O)c1nc(NC(=O)c2cc(NC(=O)CCNC(=O)c3nc(NC(=O)CCCNC(=O)c4cc(NC(=O)c5nc(NC(=O)CCNC(=O)c6cc(NC(=O)c7nccn7C)cn6C)cn5C)cn4CCCCCN=[N+]=[N-])cn3C)cn2C)cn1C [Compound B-285] | < 100 nM | < 100 nM |
| CCCNC(=O)CCNC(=O)c1nc(NC(=O)c2cc(NC(=O)CCNC(=O)c3nc(NC(=O)CCCNC(=O)c4cc(NC(=O)c5nc(NC(=O)CCNC(=O)c6cc(NC(=O)c7nccn7C)cn6C)cn5C)cn4CCCCCN)cn3C)cn2C)cn1C [Compound B-286] | 100 to 500 nM | < 100 nM |
| CC(=O)NCCCCCCn1cc(NC(=O)c2nc(NC(=O)CCNC(=O)c3cc(NC(=O)c4nccn4C)cn3C)cn2C)cc1C(=O)NCCCC(=O)Nc1cn(C)c(C(=O)NCCC(=O)Nc2cc(C(=O)Nc3cn(C)c(C(=O)NCCC(=O)N4CCC(C#CC#CC5CCN(C(C)=O)CC5)CC4)n3)n(C)c2)n1 [Compound B-293] | 500 to 1000 nM | 100 to 500 nM |
| CCCNC(=O)CCNC(=O)c1nc(NC(=O)c2cc(NC(=O)CCNC(=O)c3nc(NC(=O)CCCNC(=O)c4cc(NC(=O)c5nc(NC(=O)CCNC(=O)c6cc(NC(=O)c7nccn7C)cn6C)cn5C)cn4CCOCCN)cn3C)cn2C)cn1C [Compound B-295] | 100 to 500 nM | 100 to 500 nM |
| CC(=O)N1CCC(C#CC#CC2CCN(C(=O)CCNC(=O)c3nc(NC(=O)c4cc(NC(=O)CCNC(=O)c5nc(NC(=O)CCCNC(=O)c6cc(NC(=O)c7nc(NC(=O)CCNC(=O)c8cc(NC(=O)c9nccn9C)cn8C)cn7C)cn6CCOCCN)cn5C)cn4C)cn3C)CC2)CC1 [Compound B-296] | < 100 nM | < 100 nM |
| Cn1cc(NC(=O)c2nccn2C)cc1C(=O)NCCC(=O)Nc1cn(C)c(C(=O)Nc2cc(C(=O)NCCCC(=O)Nc3cn(C)c(C(=O)NCCC(=O)Nc4cc(C(=O)Nc5cn(C)c(C(=O)NCCC(=O)N6CCC(C#CC#CC7CCNCC7)CC6)n5)n(C)c4)n3)n(CCOCCN)c2)n1 [Compound B-297] | > 1000 nM | 100 to 500 nM |
| CCCNC(=O)CCNC(=O)c1nc(NC(=O)c2cc(NC(=O)CCNC(=O)c3nc(NC(=O)CCCNC(=O)c4cc(NC(=O)c5nc(NC(=O)CCNC(=O)c6cc(NC(=O)c7nccn7C)cn6C)cn5C)cn4CCOCCNC(C)=O)cn3C)cn2C)cn1C [Compound B-298] | 100 to 500 nM | 100 to 500 nM |
| CC(=O)NCCOCCn1cc(NC(=O)c2nc(NC(=O)CCNC(=O)c3cc(NC(=O)c4nccn4C)cn3C)cn2C)cc1C(=O)NCCCC(=O)Nc1cn(C)c(C(=O)NCCC(=O)Nc2cc(C(=O)Nc3cn(C)c(C(=O)NCCC(=O)N4CCC(C#CC#CC5CCN(C(C)=O)CC5)CC4)n3)n(C)c2)n1 [Compound B-299] | 100 to 500 nM | < 100 nM |
